Reference: US20140121373A1, “PROCESS FOR PREPARING STABLE POLYMORPHIC FORM OF ERLOTINIB HYDROCHLORIDE” (CADILA HEALTHCARE LIMITED, priority 2011, published 2014)

Assay: Chemical stability study of the stable form of Erlotinib hydrochloride (description, HPLC impurities, moisture content, assay on storage)
Type: physicochemical
Settings: for Imp-1 (%) (N-(3-Ethynylphenyl)-6-(2-chloroethoxy)-7-(2-methoxyethoxy)-quinazolin-4-amine hydrochloride) / Imp-2 (%) (N-(3-Ethynylphenyl)-7-(2-chloroethoxy)-6-(2-methoxyethoxy)-quinazolin-4-amine hydrochloride): limit 0.15 w/w; for m/c (%): limit 0.5 w/w; for Assay (%), OAB: limit 98.0-102 w/w; for Description: limit White to off white; for HPLC single maximum impurity content / HPLC total impurity content / water content: storage condition not stated
Procedure: (Refrigerator), 25° C.±2° C.[…], 30° C.±2° C./65%±5% RH (Real Time) and 40° C.±2° C./75%±5% RH of Erlotinib Hydrochloride
Differential Scanning Calorimetry (DSC): Melting points are determined by means of a DSC thermogram using a Pyris-1 make Perkin Elmer. DSC (Differential Scanning Calorimetry) is the technique of dynamic differential Calorimetry. Using this technique, the melting temperature can be measured by heating the sample until a thermal, i.e. an endothermic or exothermic, reaction is detected by means of ultrasensitive sensors. The DSC cell/sample chamber was purged with 100 ml/min of ultra-high purity nitrogen. The instrument was calibrated with high purity Indium. The sample was placed into an open aluminum DSC pan and measured against an empty reference pan. About 2 mg of sample being placed into the bottom of the pan and lightly tapped down to ensure good contact with the pan. The instrument was programmed to heat at a heating rate of 10° C./min in the temperature range between 50° C. and 300° C. • Microscope: A Lieca Microscope with Linkam Hot stage microscopy (TMS-94) system with polarized light, CCD camera and Linksys 32 data software. • HPLC: High Performance Liquid Chromatography Separation Module with PDA detector, Make Waters, Model No 2695. • KF: Moisture content was analyzed by using Karl Fisher Autotitrator 795 KFT Titrino make Metrohm.

[1] = 5° C. ± 3° C. (Refrigerator), Month 1
[2] = 5° C. ± 3° C. (Refrigerator), Month 2
[3] = 5° C. ± 3° C. (Refrigerator), Month 3
[4] = 5° C. ± 3° C. (Refrigerator), Month 6
[5] = 25° C. ± 2° C./60% ± 5% RH, Month 1
[6] = 25° C. ± 2° C./60% ± 5% RH, Month 2
[7] = 25° C. ± 2° C./60% ± 5% RH, Month 3
[8] = 25° C. ± 2° C./60% ± 5% RH, Month 6
[9] = 30° C. ± 2° C./65% ± 5% RH (Real Time), Month 1
[10] = 30° C. ± 2° C./65% ± 5% RH (Real Time), Month 2
[11] = 30° C. ± 2° C./65% ± 5% RH (Real Time), Month 3
[12] = 30° C. ± 2° C./65% ± 5% RH (Real Time), Month 6
[13] = 40° C. ± 2° C./75% ± 5% RH, Month 1
[14] = 40° C. ± 2° C./75% ± 5% RH, Month 2
[15] = 40° C. ± 2° C./75% ± 5% RH, Month 3
[16] = 40° C. ± 2° C./75% ± 5% RH, Month 6

period over which stable with all impurities in limit (5° C. to 40° C./75% RH storage conditions of the chemical stability table): ≥ 6 months
Total Imp [1]: 0.12 % w/w
Imp-1 (%) (N-(3-Ethynylphenyl)-6-(2-chloroethoxy)-7-(2-methoxyethoxy)-quinazolin-4-amine hydrochloride) [1]: 0.05%
Imp-2 (%) (N-(3-Ethynylphenyl)-7-(2-chloroethoxy)-6-(2-methoxyethoxy)-quinazolin-4-amine hydrochloride) [1]: 0.07%
m/c (%) [1]: 0.16%
Assay (%), OAB [1]: 99.5%
Description [1]: Complies
Total Imp [2]: 0.13 % w/w
Imp-1 (%) (N-(3-Ethynylphenyl)-6-(2-chloroethoxy)-7-(2-methoxyethoxy)-quinazolin-4-amine hydrochloride) [2]: 0.05%
Imp-2 (%) (N-(3-Ethynylphenyl)-7-(2-chloroethoxy)-6-(2-methoxyethoxy)-quinazolin-4-amine hydrochloride) [2]: 0.08%
m/c (%) [2]: 0.15%
Assay (%), OAB [2]: 99.6%
Description [2]: Complies
Total Imp [3]: 0.13 % w/w
Imp-1 (%) (N-(3-Ethynylphenyl)-6-(2-chloroethoxy)-7-(2-methoxyethoxy)-quinazolin-4-amine hydrochloride) [3]: 0.05%
Imp-2 (%) (N-(3-Ethynylphenyl)-7-(2-chloroethoxy)-6-(2-methoxyethoxy)-quinazolin-4-amine hydrochloride) [3]: 0.08%
m/c (%) [3]: 0.15%
Assay (%), OAB [3]: 99.5%
Description [3]: Complies
Total Imp [4]: 0.14 % w/w
Imp-1 (%) (N-(3-Ethynylphenyl)-6-(2-chloroethoxy)-7-(2-methoxyethoxy)-quinazolin-4-amine hydrochloride) [4]: 0.06%
Imp-2 (%) (N-(3-Ethynylphenyl)-7-(2-chloroethoxy)-6-(2-methoxyethoxy)-quinazolin-4-amine hydrochloride) [4]: 0.08%
m/c (%) [4]: 0.15%
Assay (%), OAB [4]: 99.8%
Description [4]: Complies
Total Imp [5]: 0.13 % w/w
Imp-1 (%) (N-(3-Ethynylphenyl)-6-(2-chloroethoxy)-7-(2-methoxyethoxy)-quinazolin-4-amine hydrochloride) [5]: 0.05%
Imp-2 (%) (N-(3-Ethynylphenyl)-7-(2-chloroethoxy)-6-(2-methoxyethoxy)-quinazolin-4-amine hydrochloride) [5]: 0.08%
m/c (%) [5]: 0.14%
Assay (%), OAB [5]: 99.9%
Description [5]: Complies
Total Imp [6]: 0.13 % w/w
Imp-1 (%) (N-(3-Ethynylphenyl)-6-(2-chloroethoxy)-7-(2-methoxyethoxy)-quinazolin-4-amine hydrochloride) [6]: 0.05%
Imp-2 (%) (N-(3-Ethynylphenyl)-7-(2-chloroethoxy)-6-(2-methoxyethoxy)-quinazolin-4-amine hydrochloride) [6]: 0.08%
m/c (%) [6]: 0.13%
Assay (%), OAB [6]: 99.2%
Description [6]: Complies
Total Imp [7]: 0.13 % w/w
Imp-1 (%) (N-(3-Ethynylphenyl)-6-(2-chloroethoxy)-7-(2-methoxyethoxy)-quinazolin-4-amine hydrochloride) [7]: 0.05%
Imp-2 (%) (N-(3-Ethynylphenyl)-7-(2-chloroethoxy)-6-(2-methoxyethoxy)-quinazolin-4-amine hydrochloride) [7]: 0.08%
m/c (%) [7]: 0.14%
Assay (%), OAB [7]: 99.3%
Description [7]: Complies
Total Imp [8]: 0.13 % w/w
Imp-1 (%) (N-(3-Ethynylphenyl)-6-(2-chloroethoxy)-7-(2-methoxyethoxy)-quinazolin-4-amine hydrochloride) [8]: 0.05%
Imp-2 (%) (N-(3-Ethynylphenyl)-7-(2-chloroethoxy)-6-(2-methoxyethoxy)-quinazolin-4-amine hydrochloride) [8]: 0.08%
m/c (%) [8]: 0.14%
Assay (%), OAB [8]: 99.9%
Description [8]: Complies
Total Imp [9]: 0.14 % w/w
Imp-1 (%) (N-(3-Ethynylphenyl)-6-(2-chloroethoxy)-7-(2-methoxyethoxy)-quinazolin-4-amine hydrochloride) [9]: 0.06%
Imp-2 (%) (N-(3-Ethynylphenyl)-7-(2-chloroethoxy)-6-(2-methoxyethoxy)-quinazolin-4-amine hydrochloride) [9]: 0.08%
m/c (%) [9]: 0.12%
Assay (%), OAB [9]: 99.6%
Description [9]: Complies
Total Imp [10]: 0.13 % w/w
Imp-1 (%) (N-(3-Ethynylphenyl)-6-(2-chloroethoxy)-7-(2-methoxyethoxy)-quinazolin-4-amine hydrochloride) [10]: 0.05%
Imp-2 (%) (N-(3-Ethynylphenyl)-7-(2-chloroethoxy)-6-(2-methoxyethoxy)-quinazolin-4-amine hydrochloride) [10]: 0.08%
m/c (%) [10]: 0.15%
Assay (%), OAB [10]: 99.4%
Description [10]: Complies
Total Imp [11]: 0.13 % w/w
Imp-1 (%) (N-(3-Ethynylphenyl)-6-(2-chloroethoxy)-7-(2-methoxyethoxy)-quinazolin-4-amine hydrochloride) [11]: 0.05%
Imp-2 (%) (N-(3-Ethynylphenyl)-7-(2-chloroethoxy)-6-(2-methoxyethoxy)-quinazolin-4-amine hydrochloride) [11]: 0.08%
m/c (%) [11]: 0.15%
Assay (%), OAB [11]: 99.4%
Description [11]: Complies
Total Imp [12]: 0.14 % w/w
Imp-1 (%) (N-(3-Ethynylphenyl)-6-(2-chloroethoxy)-7-(2-methoxyethoxy)-quinazolin-4-amine hydrochloride) [12]: 0.06%
Imp-2 (%) (N-(3-Ethynylphenyl)-7-(2-chloroethoxy)-6-(2-methoxyethoxy)-quinazolin-4-amine hydrochloride) [12]: 0.08%
m/c (%) [12]: 0.14%
Assay (%), OAB [12]: 99.8%
Description [12]: Complies
Total Imp [13]: 0.14 % w/w
Imp-1 (%) (N-(3-Ethynylphenyl)-6-(2-chloroethoxy)-7-(2-methoxyethoxy)-quinazolin-4-amine hydrochloride) [13]: 0.06%
Imp-2 (%) (N-(3-Ethynylphenyl)-7-(2-chloroethoxy)-6-(2-methoxyethoxy)-quinazolin-4-amine hydrochloride) [13]: 0.08%
m/c (%) [13]: 0.15%
Assay (%), OAB [13]: 99.3%
Description [13]: Complies
Total Imp [14]: 0.13 % w/w
Imp-1 (%) (N-(3-Ethynylphenyl)-6-(2-chloroethoxy)-7-(2-methoxyethoxy)-quinazolin-4-amine hydrochloride) [14]: 0.05%
Imp-2 (%) (N-(3-Ethynylphenyl)-7-(2-chloroethoxy)-6-(2-methoxyethoxy)-quinazolin-4-amine hydrochloride) [14]: 0.08%
m/c (%) [14]: 0.16%
Assay (%), OAB [14]: 99.5%
Description [14]: Complies
Total Imp [15]: 0.13 % w/w
Imp-1 (%) (N-(3-Ethynylphenyl)-6-(2-chloroethoxy)-7-(2-methoxyethoxy)-quinazolin-4-amine hydrochloride) [15]: 0.05%
Imp-2 (%) (N-(3-Ethynylphenyl)-7-(2-chloroethoxy)-6-(2-methoxyethoxy)-quinazolin-4-amine hydrochloride) [15]: 0.08%
m/c (%) [15]: 0.16%
Assay (%), OAB [15]: 99.9%
Description [15]: Complies
Total Imp [16]: 0.14 % w/w
Imp-1 (%) (N-(3-Ethynylphenyl)-6-(2-chloroethoxy)-7-(2-methoxyethoxy)-quinazolin-4-amine hydrochloride) [16]: 0.06%
Imp-2 (%) (N-(3-Ethynylphenyl)-7-(2-chloroethoxy)-6-(2-methoxyethoxy)-quinazolin-4-amine hydrochloride) [16]: 0.08%
m/c (%) [16]: 0.17%
Assay (%), OAB [16]: 99.4%
Description [16]: Complies
HPLC single maximum impurity content (Initial): 0.08 % w/w
HPLC total impurity content (Initial): 0.13 % w/w
water content (Initial): 0.14 % w/w
HPLC single maximum impurity content (after 3 months): 0.08 % w/w
HPLC total impurity content (after 3 months): 0.13 % w/w
water content (after 3 months): 0.14 % w/w
HPLC single maximum impurity content (after 6 months): 0.08 % w/w
HPLC total impurity content (after 6 months): 0.13 % w/w
water content (after 6 months): 0.14 % w/w
Compound: C#Cc1cccc(Nc2ncnc3cc(OCCOC)c(OCCOC)cc23)c1.Cl [Erlotinib hydrochloride, 4-(3-Ethynylphenylamino)-6,7-bis(2-methoxyethoxy)-quinazoline]
